Measurements published in PubChem BioAssay (NCI).
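48-hour exposure; five concentrations; linearly interpolated endpoints. The concentration for full growth arrest is given as TGI.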

Tested on: ACHN renal
Test: NCI-60 cell line screen, 48 h

SMILES | TGI
CCC1c2[nH]c3ccccc3c2C[C@H]2C(=O)NC(CCC(=O)OC(C)(C)C)C(=O)N12 (stereo not given in full) | > 100 µM
CCOC(=O)NC(Nc1ccc(S(=O)(=O)Nc2ncccn2)cc1)(C(=O)OCC)C(F)(F)F (stereo not given) | > 100 µM
CCOC(=O)C(Cl)(NC(=O)c1ccc(F)cc1)C(F)(F)F (stereo not given) | > 100 µM
COc1ccccc1N1C(=O)/C(=C\c2cccc(Oc3ccccc3)c2)SC1c1ccccc1 (stereo not given) | > 100 µM
Cc1ccc(S(=O)(=O)OC2C3OC(C)(C)OC3OC2C(c2cc(O)c3c(c2O)C(=O)c2ccccc2C3=O)c2cc(O)c3c(c2O)C(=O)c2ccccc2C3=O)cc1 (stereo not given) | > 10 µM
N#Cc1nc(COCCOCc2ccccc2)oc1N | > 100 µM
CC/C(=N/O)c1ccc(Br)s1 | > 100 µM
O=C(CCc1ccc(O)cc1)NCCc1ccc(O)cc1 | > 100 µM
CCOC(=O)N/N=C(/N)Cc1ccccc1 | > 100 µM
CC(=O)NCc1nc(C#N)c(N)o1 | > 100 µM
O=P(O)(O)CN1CCN(CP(=O)(O)O)CCN(CP(=O)(O)O)CCN(CP(=O)(O)O)CC1 | > 100 µM
O=C1C(Br)=CC2(C=C1Br)CCN=c1c(O)c3c(c(O)c12)=NC=N3 | 27.7 µM
O=C1SCC(O)=C1/C=N/Nc1nc2ccccc2o1 | > 100 µM
NC(N)=N/N=C/c1c(Cl)nc2sccn12 | 33.4 µM
S=C1Cc2c([nH]c3ccccc23)-c2ccccc2N1 | 80.6 µM

Tested on: HL-60(TB) leukemia
Test: NCI-60 cell line screen, 48 h

SMILES | TGI
Cc1nc(N)c(N2CCNCC2)c(=O)[nH]1 | > 100 µM
CC1=C2C3=C(C)C(=O)C(C)(C)CC[C@@]3(C)[C@]2(C)CCC(C)(C)C1=O | > 100 µM
Brc1ccc2c(-c3nc(-c4c[nH]c5ccc(Br)cc45)cs3)c[nH]c2c1 | 23.2 µM
COc1ccc(OC)c2c1C(=O)C(Cl)=C(N1CCN(CCOCCO)CC1)C2=O | 3.33 µM
CCC1c2[nH]c3ccccc3c2C[C@H]2C(=O)NC(CCC(=O)OC(C)(C)C)C(=O)N12 (stereo not given in full) | > 100 µM
CCOC(=O)NC(Nc1ccc(S(=O)(=O)Nc2ncccn2)cc1)(C(=O)OCC)C(F)(F)F (stereo not given) | > 100 µM
CCOC(=O)C(Cl)(NC(=O)c1ccc(F)cc1)C(F)(F)F (stereo not given) | > 100 µM
COc1ccccc1N1C(=O)/C(=C\c2cccc(Oc3ccccc3)c2)SC1c1ccccc1 (stereo not given) | 39.4 µM
Cc1ccc(S(=O)(=O)OC2C3OC(C)(C)OC3OC2C(c2cc(O)c3c(c2O)C(=O)c2ccccc2C3=O)c2cc(O)c3c(c2O)C(=O)c2ccccc2C3=O)cc1 (stereo not given) | > 10 µM
N#Cc1nc(COCCOCc2ccccc2)oc1N | > 100 µM
CC/C(=N/O)c1ccc(Br)s1 | > 100 µM
O=C(CCc1ccc(O)cc1)NCCc1ccc(O)cc1 | > 100 µM
CCOC(=O)N/N=C(/N)Cc1ccccc1 | > 100 µM
CC(=O)NCc1nc(C#N)c(N)o1 | > 100 µM
O=P(O)(O)CN1CCN(CP(=O)(O)O)CCN(CP(=O)(O)O)CCN(CP(=O)(O)O)CC1 | 72.4 µM
O=C1C(Br)=CC2(C=C1Br)CCN=c1c(O)c3c(c(O)c12)=NC=N3 | 35 µM
O=C1SCC(O)=C1/C=N/Nc1nc2ccccc2o1 | 24.7 µM
Clc1cccc(Cl)c1C1SCC2=Nc3ccccc3CN21 (stereo not given) | > 100 µM
NC(N)=N/N=C/c1c(Cl)nc2sccn12 | 42.1 µM
S=C1Cc2c([nH]c3ccccc23)-c2ccccc2N1 | > 100 µM

Tested on: OVCAR-4 ovarian
Test: NCI-60 cell line screen, 48 h

SMILES | TGI
CC1=C2C3=C(C)C(=O)C(C)(C)CC[C@@]3(C)[C@]2(C)CCC(C)(C)C1=O | > 100 µM
Brc1ccc2c(-c3nc(-c4c[nH]c5ccc(Br)cc45)cs3)c[nH]c2c1 | 24.3 µM
COc1ccc(OC)c2c1C(=O)C(Cl)=C(N1CCN(CCOCCO)CC1)C2=O | 32 µM
CCC1c2[nH]c3ccccc3c2C[C@H]2C(=O)NC(CCC(=O)OC(C)(C)C)C(=O)N12 (stereo not given in full) | > 100 µM
CCOC(=O)NC(Nc1ccc(S(=O)(=O)Nc2ncccn2)cc1)(C(=O)OCC)C(F)(F)F (stereo not given) | > 100 µM
CCOC(=O)C(Cl)(NC(=O)c1ccc(F)cc1)C(F)(F)F (stereo not given) | > 100 µM
COc1ccccc1N1C(=O)/C(=C\c2cccc(Oc3ccccc3)c2)SC1c1ccccc1 (stereo not given) | > 100 µM
Cc1ccc(S(=O)(=O)OC2C3OC(C)(C)OC3OC2C(c2cc(O)c3c(c2O)C(=O)c2ccccc2C3=O)c2cc(O)c3c(c2O)C(=O)c2ccccc2C3=O)cc1 (stereo not given) | > 10 µM
N#Cc1nc(COCCOCc2ccccc2)oc1N | > 100 µM
CC/C(=N/O)c1ccc(Br)s1 | > 100 µM
